Reference: patent publication US20240158446A1, “CYCLIC COMPOUND HAVING SELECTIVE INHIBITORY ACTION ON KRAS OVER HRAS AND NRAS” (CHUGAI SEIYAKU KABUSHIKI KAISHA, priority 2021, published 2024)
Where two headings read alike, the source gives them in different places. Where a SMILES comes first, the peptide text is derived from it. Bridges are numbered along the chain shown (N, C = ends). [ ]: non-standard residue; d: D form. The star is where a group is joined. hPhe(3-Cl-4-CF3) = N[C@@H](CCc1ccc(C(F)(F)F)c(Cl)c1)C(=O)O; NPrPhe(4-CF3) = CCCN[C@@H](Cc1ccc(C(F)(F)F)cc1)C(=O)O; NPrPhe(4-Me) = CCCN[C@@H](Cc1ccc(C)cc1)C(=O)O; NMeGly(cPent) = CN[C@H](C(=O)O)C1CCCC1; Pro(4,4-F2) = O=C(O)[C@@H]1CC(F)(F)CN1; Hyp = O=C(O)[C@@H]1C[C@@H](O)CN1; NMeD = CN[C@@H](CC(=O)O)C(=O)O; NMeL = CN[C@@H](CC(C)C)C(=O)O; Morpholide = C1CN(*)CCO1; NMeA = CN[C@@H](C)C(=O)O; Ac5c = NC1(C(=O)O)CCCC1; Aze = O=C(O)[C@@H]1CCN1; Abu = CC[C@H](N)C(=O)O; Ac4c = NC1(C(=O)O)CCC1; NEtG = CCNCC(=O)O; Sar = CNCC(=O)O

Columns and labels:
[1] = molecular target: GDP-bound HRAS wild-type protein (Homo sapiens, UniProt P01112); assay: Binding to HRAS by surface plasmon resonance (SPR), Single Cycle Kinetics; conditions: for HRAS/KRAS (ratio of KD value for HRAS to KD value for KRAS) / HRAS/KRAS (ratio of KD value with respect to HRAS to KD value with respect to KRAS): SPR, GDP-bound HRAS wild-type protein vs GDP-bound KRAS wild-type protein
Sequence of GDP-bound HRAS wild-type protein (P01112 whole entry): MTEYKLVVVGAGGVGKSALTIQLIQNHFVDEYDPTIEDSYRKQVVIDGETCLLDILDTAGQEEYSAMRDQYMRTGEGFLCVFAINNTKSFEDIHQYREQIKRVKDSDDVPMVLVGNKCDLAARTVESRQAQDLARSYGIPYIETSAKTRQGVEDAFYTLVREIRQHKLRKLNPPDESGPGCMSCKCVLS

[2] = molecular target: GDP-bound KRAS wild-type protein (Homo sapiens, UniProt P01116); assay: Binding to KRAS by surface plasmon resonance (SPR), Single Cycle Kinetics; conditions: GDP-bound KRAS wild-type protein, read-out: KRAS KD
Sequence of GDP-bound KRAS wild-type protein (P01116 whole entry): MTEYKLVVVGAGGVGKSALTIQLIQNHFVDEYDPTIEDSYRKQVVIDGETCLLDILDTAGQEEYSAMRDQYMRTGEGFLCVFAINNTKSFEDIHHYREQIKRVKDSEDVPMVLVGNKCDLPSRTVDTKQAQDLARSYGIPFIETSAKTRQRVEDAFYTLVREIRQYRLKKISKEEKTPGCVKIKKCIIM

[3] = molecular target: GDP-bound NRAS wild-type protein (Homo sapiens, UniProt P01111); assay: Binding to NRAS by surface plasmon resonance (SPR), Single Cycle Kinetics; conditions: for NRAS/KRAS (ratio of KD value for NRAS to KD value for KRAS) / NRAS/KRAS (ratio of KD value with respect to NRAS to KD value with respect to KRAS): SPR, GDP-bound NRAS wild-type protein vs GDP-bound KRAS wild-type protein
Sequence of GDP-bound NRAS wild-type protein (P01111 whole entry): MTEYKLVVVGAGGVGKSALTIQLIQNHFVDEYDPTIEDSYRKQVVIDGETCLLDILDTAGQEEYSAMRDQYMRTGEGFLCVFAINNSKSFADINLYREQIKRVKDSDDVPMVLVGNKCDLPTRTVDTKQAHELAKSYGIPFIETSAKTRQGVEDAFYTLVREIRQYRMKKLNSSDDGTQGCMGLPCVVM

[4] = SPR Single Cycle Kinetics, 1:1 binding model

Row | Compound | Kd ([2]; SPR, Single Cycle Kinetics) [pM] | Kd [2, 4] [pM] | HRAS/KRAS (ratio of KD value for HRAS to KD value for KRAS) [1] | NRAS/KRAS (ratio of KD value for NRAS to KD value for KRAS) [3] | HRAS/KRAS (ratio of KD value with respect to GDP-bound HRAS wild-type protein to KD value with respect to KRAS) ([1]; SPR KD ratio HRAS/KRAS, class symbols) | NRAS/KRAS (ratio of KD value with respect to GDP-bound NRAS wild-type protein to KD value with respect to KRAS) ([3]; SPR KD ratio NRAS/KRAS, class symbols) | HRAS/KRAS (ratio of KD value with respect to HRAS to KD value with respect to KRAS) [1] | NRAS/KRAS (ratio of KD value with respect to NRAS to KD value with respect to KRAS) [3]
1 | CCC[C@H]1C(=O)N[C@@H]([C@@H](C)CC)C(=O)N2CCC[C@H]2C(=O)N(C)[C@H]2C/C=C\CCN(C2=O)[C@@H](Cc2ccc(C)cc2)C(=O)N(C)CC(=O)N[C@@H](CCc2ccc(C(F)(F)F)c(OC)c2)C(=O)N2C[C@H](OCC)C[C@H]2C(=O)N(C)C2(CCC2)C(=O)N(C)[C@@H](C(CC)CC)C(=O)N(C)[C@H](C(=O)N(C)C)CC(=O)N1C [PP2329] | 420 |  | A (a compound having 10 or more and less than 20 is denoted as A) | A (a compound having 10 or more and less than 20 is denoted as A) |  |  |  | 
2 | CCCN1C(=O)[C@@H]2CCN2C(=O)[C@H](C)N(C)C(=O)[C@H]([C@@H](C)CC)NC(=O)[C@H](CC(C)C)N(C)C(=O)C[C@@H](C(=O)N2CCOCC2)N(C)C(=O)[C@H](C2CCCC2)N(C)C(=O)C2(CCCC2)NC(=O)[C@@H]2CCCN2C(=O)[C@H](CCc2ccc(C(F)(F)F)c(Cl)c2)NC(=O)CN(CC)C(=O)[C@@H]1Cc1ccc(C)cc1 [PP0058] ([NMeL]I[NMeA][Aze][NPrPhe(4-Me)][NEtG][hPhe(3-Cl-4-CF3)]P[Ac5c][NMeGly(cPent)][NMeD]-Morpholide; lactam N-11) |  | 2000 | C (A compound having a KD ratio of 0.1 or more and less than 3 is denoted as C) | C (A compound having a KD ratio of 0.1 or more and less than 3 is denoted as C) |  |  |  | 
3 | CCCN1C(=O)CN(C)C(=O)CN(C)C(=O)[C@H](CC)NC(=O)[C@H](CC(C)C)N(C)C(=O)C[C@@H](C(=O)N2CCOCC2)N(C)C(=O)[C@H](C2CCCC2)N(C)C(=O)C2(CCCC2)NC(=O)[C@@H]2CCCN2C(=O)[C@H](CCc2ccc(C(F)(F)F)c(Cl)c2)NC(=O)CN(C)C(=O)[C@@H]1Cc1ccc(C(F)(F)F)cc1 [PP0248] ([NMeL][Abu][Sar][Sar][NPrPhe(4-CF3)][Sar][hPhe(3-Cl-4-CF3)]P[Ac5c][NMeGly(cPent)][NMeD]-Morpholide; lactam N-11) |  | 1100 | B (a compound having 3 or more and less than 10 is denoted as B) | B (a compound having 3 or more and less than 10 is denoted as B) |  |  |  | 
4 | CCCN1C(=O)CN(C)C(=O)[C@@H]2CCN2C(=O)[C@H]([C@@H](C)CC)NC(=O)[C@H](CC(C)C)N(C)C(=O)C[C@@H](C(=O)N(C)C)NC(=O)[C@H](C2CCCC2)N(C)C(=O)C2(CCCC2)NC(=O)[C@@H]2C[C@@H](OCC)CN2C(=O)[C@H](CCc2ccc(C(F)(F)F)c(Cl)c2)NC(=O)CN(C)C(=O)[C@@H]1Cc1ccc(C(F)(F)F)cc1 [PP0377] ([NMeL]I[Aze][Sar][NPrPhe(4-CF3)][Sar][hPhe(3-Cl-4-CF3)][Hyp](Et)[Ac5c][NMeGly(cPent)]D-NMe2; lactam N-11) |  | 700 | C (A compound having a KD ratio of 0.1 or more and less than 3 is denoted as C) | B (a compound having 3 or more and less than 10 is denoted as B) |  |  |  | 
5 | CC[C@H](C)[C@@H]1NC(=O)[C@H](CC(C)C)N(C)C(=O)C[C@@H](C(=O)N2CCOCC2)N(C)C(=O)[C@H](C2CCCC2)N(C)C(=O)C2(CC(F)(F)C2)NC(=O)[C@@H]2CCCN2C(=O)[C@H](CCc2cc(F)c(C(F)(F)F)c(F)c2)NC(=O)CN(C)C(=O)[C@H](Cc2ccc(C(F)(F)F)cc2)N2CCCC[C@@H](C2=O)N(C)C(=O)CN(C)C1=O [PP0562] |  | 40 |  |  |  |  | B (a compound having 3 or more and less than 10 is denoted as B) | B (a compound having 3 or more and less than 10 is denoted as B)
6 | CCCN1C(=O)CN(C)C(=O)CN(CC)C(=O)[C@H]([C@@H](C)CC)NC(=O)[C@H](CC(C)C)N(C)C(=O)C[C@@H](C(=O)N2CCOCC2)NC(=O)[C@H](C2CCCC2)N(C)C(=O)C2(CCC2)NC(=O)[C@@H]2CCCN2C(=O)[C@H](CCc2ccc(C(F)(F)F)c(Cl)c2)NC(=O)CN(C)C(=O)[C@@H]1Cc1ccc(C(F)(F)F)cc1 [PP0332] ([NMeL]I[NEtG][Sar][NPrPhe(4-CF3)][Sar][hPhe(3-Cl-4-CF3)]P[Ac4c][NMeGly(cPent)]D-Morpholide; lactam N-11) |  | 3200 | B (a compound having 3 or more and less than 10 is denoted as B) | B (a compound having 3 or more and less than 10 is denoted as B) |  |  |  | 
7 | CC[C@H](C)[C@@H]1NC(=O)[C@H](CC(C)C)N(C)C(=O)C[C@@H](C(=O)N2CCOCC2)N(C)C(=O)[C@H](C2CCCC2)N(C)C(=O)C2(CCCC2)NC(=O)[C@@H]2CCCN2C(=O)[C@H](CCc2ccc(C(F)(F)F)c(Cl)c2)NC(=O)CN(C)C(=O)[C@H](Cc2ccc(C)cc2)N2CC/C=C\C[C@@H](C2=O)N(C)C(=O)CN(C)C1=O [PP0461] |  | 490 |  |  |  |  | A (a compound having 10 or more and less than 20 is denoted as A) | A (a compound having 10 or more and less than 20 is denoted as A)
8 | CCCN1C(=O)CN(C)C(=O)[C@@H]2CCN2C(=O)[C@H]([C@@H](C)CC)NC(=O)[C@H](CC(C)C)N(C)C(=O)C[C@@H](C(=O)N2CCOCC2)NC(=O)[C@H](C2CCCC2)N(C)C(=O)C2(CCCC2)NC(=O)[C@@H]2CC(F)(F)CN2C(=O)[C@H](CCc2ccc(C(F)(F)F)c(Cl)c2)NC(=O)CN(C)C(=O)[C@@H]1Cc1ccc(C(F)(F)F)cc1 [PP0339] ([NMeL]I[Aze][Sar][NPrPhe(4-CF3)][Sar][hPhe(3-Cl-4-CF3)][Pro(4,4-F2)][Ac5c][NMeGly(cPent)]D-Morpholide; lactam N-11) |  | 5000 | B (a compound having 3 or more and less than 10 is denoted as B) | B (a compound having 3 or more and less than 10 is denoted as B) |  |  |  | 

The next lines start with results.

Row | Kd ([2]; SPR, Single Cycle Kinetics) [pM] | Kd [2, 4] [pM] | Compound | HRAS/KRAS (ratio of KD value for HRAS to KD value for KRAS) [1] | NRAS/KRAS (ratio of KD value for NRAS to KD value for KRAS) [3] | HRAS/KRAS (ratio of KD value with respect to GDP-bound HRAS wild-type protein to KD value with respect to KRAS) ([1]; SPR KD ratio HRAS/KRAS, class symbols) | NRAS/KRAS (ratio of KD value with respect to GDP-bound NRAS wild-type protein to KD value with respect to KRAS) ([3]; SPR KD ratio NRAS/KRAS, class symbols) | HRAS/KRAS (ratio of KD value with respect to HRAS to KD value with respect to KRAS) [1] | NRAS/KRAS (ratio of KD value with respect to NRAS to KD value with respect to KRAS) [3]
9 |  | 180 | CCCN1C(=O)CN(C)C(=O)CNC(=O)[C@H]([C@@H](C)CC)NC(=O)[C@H](CC(C)C)N(C)C(=O)C[C@@H](C(=O)N2CCOCC2)N(C)C(=O)[C@H](C2CCCC2)N(C)C(=O)C2(CCCC2)NC(=O)[C@@H]2CCCN2C(=O)[C@H](CCc2ccc(C(F)(F)F)c(Cl)c2)NC(=O)CN(C)C(=O)[C@@H]1Cc1ccc(C(F)(F)F)cc1 [PP0155] ([NMeL]IG[Sar][NPrPhe(4-CF3)][Sar][hPhe(3-Cl-4-CF3)]P[Ac5c][NMeGly(cPent)][NMeD]-Morpholide; lactam N-11) | C (A compound having a KD ratio of 0.1 or more and less than 3 is denoted as C) | B (a compound having 3 or more and less than 10 is denoted as B) |  |  |  | 
10 | 490 |  | CCO[C@@H]1C[C@H]2C(=O)NC3(CCC3)C(=O)N(C)[C@@H](C3CCCC3)C(=O)N(C)[C@H](C(=O)N(C)C)CC(=O)N(C)[C@@H](COC)C(=O)N[C@@H]([C@@H](C)CC)C(=O)N3CC[C@H]3C(=O)N(C)[C@H]3CCCCCN(C3=O)[C@@H](Cc3ccc(C(F)(F)F)cc3)C(=O)N(C)CC(=O)N[C@@H](CCc3cc(F)c(C(F)(F)F)c(F)c3)C(=O)N2C1 [PP0864] | B (a compound having 3 or more and less than 10 is denoted as B) | B (a compound having 3 or more and less than 10 is denoted as B) |  |  |  | 
11 |  | 730 | CCCN1C(=O)[C@@H]2CCN2C(=O)CN(C)C(=O)[C@H]([C@@H](C)CC)NC(=O)[C@H](CC(C)C)N(C)C(=O)C[C@@H](C(=O)N2CCOCC2)NC(=O)[C@H](C2CCCC2)N(C)C(=O)C2(CCCC2)NC(=O)[C@@H]2CCCN2C(=O)[C@H](CCc2ccc(C(F)(F)F)c(Cl)c2)NC(=O)CN(C)C(=O)[C@@H]1Cc1ccc(C(F)(F)F)cc1 [PP0349] ([NMeL]I[Sar][Aze][NPrPhe(4-CF3)][Sar][hPhe(3-Cl-4-CF3)]P[Ac5c][NMeGly(cPent)]D-Morpholide; lactam N-11) | B (a compound having 3 or more and less than 10 is denoted as B) | C (A compound having a KD ratio of 0.1 or more and less than 3 is denoted as C) |  |  |  | 
12 |  | 170 | CCC(CC)[C@H]1C(=O)N(C)[C@H](C(=O)N(C)C)CC(=O)N(C)[C@H]2CCC/C=C/c3ccc(cc3)C[C@@H](C(=O)N(C)CC(=O)N[C@@H](CCc3cc(F)c(C(F)(F)F)c(F)c3)C(=O)N3CCC[C@H]3C(=O)NC3(CC(C)(C)C3)C(=O)N1C)N1CC/C=C\C[C@@H](C1=O)N(C)C(=O)CN(C)C(=O)[C@H]([C@@H](C)CC)NC2=O [PP2600] |  |  | A (a compound having 10 or more and less than 20 is denoted as A) | A (a compound having 10 or more and less than 20 is denoted as A) |  | 
